Laboratory results: patent publication US20190105194A1, “METHODS OF TREATING A SUBJECT WITH AN OCULAR CONDITION RESPONSIVE TO STEROID THERAPY” (Aciont Inc., priority 2017, published 2019)
“And” between values parts separate entries of the source, which are not always exact repeats. Identical values can stand only once. Like-named read-outs stand apart in the source and are kept apart here.

Columns and labels:
[1] = rabbit, in vivo, 1 mg; cited from earlier work
in vivo = conditions: rabbit
Method: (§1) For the toxicokinetic study, there were four groups of rabbit. […] Blood was collected and processed for plasma at predose, 5, 30, 60, 120, 240, and 360 minutes, and 24, 48, 72, 96, and 168 hours after administration.
(§2) Approximately 1 mL of blood was collected by direct venipuncture of the jugular vein with a 3 mL syringe and 21 GA×1″ needle. Blood was immediately transferred into anticoagulant (potassium EDTA) coated microcentrifuge tubes. Blood was then centrifuged for five minutes at 3000×G at 4° C. Plasma was immediately separated into another microcentrifuge tube then kept in −20° C. freezer for LC-MS analysis.
(§3) Briefly, the samples were assayed by Shimadzu SCL-10A controller with LC-10AD pump. The mobile phase was 50% by volume of 10 mM ammonium acetate and 50% by volume of methanol. The HPLC column was a)(Bridge Phenyl column, 5 μm, 50×2.0 mm. An isocratic elution was applied at 0.500 mL/min flow rate and column temperature was 30° C. […] The injection volume was 10 μL. […] The limit of quantitation (LOQ) of this method was 1 ng/mL.
(§4) Toxicokinetic data analysis was based on standard noncompartmental pharmacokinetic methods. […] The maximum observed plasma concentration (Cmax) was determined by visual estimation from the data plot. Area under the plasma concentration vs. time curve from 0 to the time of the last measurable concentration (AUC) was calculated by the linear trapezoidal method. Elimination half-life (t1/2) was calculated as ln(2)/ke, where ke is the elimination rate constant determined by linear regression of the last three analytically measured points on the plasma concentration vs. time curve.

[2] = human, in vivo, 1 mg; cited from earlier work
[3] = in vivo
Method: as §1, §2, §3, §4

[4] = system: New Zealand White rabbits; conditions: rabbit, in vivo
Method: For the ocular toxicity study, there were four groups. […] The total exposure was 12 doses over the period of 12 weeks. Clinical observations were performed on weekdays, and before and after each dosing. Following the final observations (i.e., one week after the last dose), the rabbits were sacrificed and the eyes were processed for histological evaluation.
One drop of sterile proparacaine hydrochloride (a local anesthetic) was put on the eye (to be treated) 5 minutes before dose administration. […] The position of the device was checked to ensure that the active agent matrix was in immediate contact with the white part of the eye but not the cornea. Digital timers were used for accurate application times (i.e., 5, 10, or 20 minutes). After the given application duration, the applicator was carefully removed from the eye.
All animals (both left and right eyes) were examined by indirect ophthalmoscopy of the cornea, conjunctiva, anterior chamber, vitreous, posterior chamber, and sclera. One to two drops each of phenylephrine hydrochloride and cyclopentolate hydrochloride were used as mydriatics. Observations on the anterior and posterior segments of the eye were made, graded, and recorded. A modified McDonald-Shadduck scale was used for grading eye irritation and ocular toxicity.
The histopathological processing and evaluation were conducted at Colorado Histo-Prep (Fort Collins, Colo.). Briefly, a central cut of the eye globe was taken, as well as two cuts on either side of the central cut (calottes) at trim. For each eye, the central cut was placed into one cassette, and the two calottes were placed together into a separate cassette. The tissues were processed, embedded in paraffin wax, sectioned by microtome, and stained. Histopathology of the tissues was conducted on slides stained with hematoxylin and eosin. A pathologist who evaluated the tissues had no knowledge of the specific pharmacologic activity or formulation of the test articles. Standardized toxicological pathology criteria and nomenclature for the rabbit were used to categorize microscopic tissue changes.

[5] = system: New Zealand White (NZW) rabbits; conditions: rabbit, in vivo
Method: This procedure was repeated 24 hours later with the shorter application duration of 5 minutes.
Eight (4 male and 4 female) NZW rabbits, 5-6 months old, were assigned to two groups according to the following study design:

[6] = system: New Zealand White rabbits; conditions: rabbit, in vivo; remark: listed apart in the source
Method: Thirty six New Zealand White rabbits between 5 and 6 months of age were used for this study. […] Each group contained 12 rabbits, 6 males and 6 females. Rabbits were dosed in their right eye on study days 1, 2, 8, 15, 22 and 29 using a trans-scleral application system. Dosing was accomplished by filling the system with the appropriate test or control article and placing the applicator in full contact with the sclera of the right eye for 5 minutes. The contralateral eye served as an untreated control. Intraocular pressure (IOP) was measured via rebound tonometry in both eyes prior to dosing and within 5 minutes thereafter on days 1, 15 and 29. IOP was also measured the day after dosing on days 16 and 30 and in the recovery animals on day 43.

[7] = system: rabbit coronary microvessel endothelium; conditions: cited from earlier work

C[C@@H]1C[C@H]2[C@@H]3CCC4=CC(=O)C=C[C@]4(C)[C@@]3(F)[C@@H](O)C[C@]2(C)[C@@]1(O)C(=O)COP(=O)(O)O [DSP, dexamethasone sodium phosphate]
Cmax after IV injection [1]: 786 ng/mL
Tmax (in vivo): 5 min
Cmax after IV injection [2]: 10.5 ng/mL
half-life of the drug in the rabbit [3]: 120 to 180 min
corneal surface covered by corneal haze lesion ([4]; New Zealand White, 4 weeks): about 40%
typical conjunctival injection score immediately after treatment ([4]; New Zealand White, 12 weeks): 1 or <1
Ocular Histopathology [4]: NSF
histopathology finding [4]: mild chronic inflammation at the limbus of the cornea
histopathology of eyes [4]: morphologically normal
nature of ocular findings (conjunctival injection, discharge, corneal haze) in treated eyes [4]: transient and mild in nature
IOP increase (mild effect) ([5]; both, New Zealand White): 5-8 mmHg
IOP increase (absolute value) compared to control eye change, immediately after application ([5]; male, New Zealand White): 2 mmHg
IOP increase (absolute value) compared to control eye change, immediately after treatment ([5]; male, New Zealand White): 8 mmHg
change in IOP within one hour after treatment ([5]; male, New Zealand White): 4 mmHg
effect on the IOP of the treated eye (statistical analysis) [5]: no effect
time for IOP to return to a normal range after treatment [5]: within one half hour
time for IOP to return to below baseline after treatment [5]: within one half hour
time for IOP to return to normal after treatment [5]: within one half hour
IOP effects related to dosing [6]: no IOP effects related to dosing

C[C@@H]1C[C@H]2[C@@H]3CCC4=CC(=O)C=C[C@]4(C)[C@@]3(F)[C@@H](O)C[C@]2(C)[C@@]1(O)C(=O)CO [DEX, dexamethasone]
Tmax of DEX in plasma ([3]; rabbit): 30 min
concentration that can inhibit prostaglandin release [7]: 10^−7 M and ~40 ng/mL
